Experimental data from PubChem BioAssay (NCI).
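Briefly, cells in 96-well plates were exposed to five compound concentrations for 48 h, and endpoints were estimated by linear interpolation. Definition used: TGI = concentration required for complete inhibition of growth.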

Tests used:
Test in all cases: NCI tumour cell line growth inhibition, 48 h
OVCAR-8 ovarian = tested on: OVCAR-8 ovarian
SK-OV-3 ovarian = tested on: SK-OV-3 ovarian
K-562 leukemia = tested on: K-562 leukemia
LXFL 529 NSCLC = tested on: LXFL 529 NSCLC
SNB-19 CNS = tested on: SNB-19 CNS
SF-295 CNS = tested on: SF-295 CNS
HL-60(TB) leukemia = tested on: HL-60(TB) leukemia
M14 melanoma = tested on: M14 melanoma
SK-MEL-5 melanoma = tested on: SK-MEL-5 melanoma
A498 renal = tested on: A498 renal
NCI-H226 lung = tested on: NCI-H226 lung
COLO 205 colon = tested on: COLO 205 colon
HOP-92 NSCLC = tested on: HOP-92 NSCLC
OVCAR-3 ovarian = tested on: OVCAR-3 ovarian
SNB-75 CNS = tested on: SNB-75 CNS
CCRF-CEM leukemia = tested on: CCRF-CEM leukemia
LOX IMVI melanoma = tested on: LOX IMVI melanoma
NCI-H460 lung = tested on: NCI-H460 lung
SN12C renal = tested on: SN12C renal
M19-MEL melanoma = tested on: M19-MEL melanoma
SF-268 CNS = tested on: SF-268 CNS
DLD-1 colon = tested on: DLD-1 colon
UO-31 renal = tested on: UO-31 renal
U251 CNS = tested on: U251 CNS
EKVX NSCLC = tested on: EKVX NSCLC
MALME-3M melanoma = tested on: MALME-3M melanoma
SF-539 CNS = tested on: SF-539 CNS
OVCAR-4 ovarian = tested on: OVCAR-4 ovarian
OVCAR-5 ovarian = tested on: OVCAR-5 ovarian
RXF 393 renal = tested on: RXF 393 renal
A549 NSCLC = tested on: A549 NSCLC
UACC-257 melanoma = tested on: UACC-257 melanoma
NCI-H522 lung = tested on: NCI-H522 lung
XF 498 CNS = tested on: XF 498 CNS
SNB-78 CNS = tested on: SNB-78 CNS
KM20L2 colon = tested on: KM20L2 colon
HCT-116 colon = tested on: HCT-116 colon
SK-MEL-2 melanoma = tested on: SK-MEL-2 melanoma
ACHN renal = tested on: ACHN renal
NCI-H23 lung = tested on: NCI-H23 lung
HCC-2998 colon = tested on: HCC-2998 colon
SK-MEL-28 melanoma = tested on: SK-MEL-28 melanoma
MOLT-4 leukemia = tested on: MOLT-4 leukemia
TK-10 renal = tested on: TK-10 renal
HOP-62 NSCLC = tested on: HOP-62 NSCLC
IGROV1 ovarian = tested on: IGROV1 ovarian
KM12 colon = tested on: KM12 colon
UACC-62 melanoma = tested on: UACC-62 melanoma
SW-620 colon = tested on: SW-620 colon
786-0 renal = tested on: 786-0 renal
RPMI-8226 leukemia = tested on: RPMI-8226 leukemia
HCT-15 colon = tested on: HCT-15 colon
HOP-18 NSCLC = tested on: HOP-18 NSCLC
DMS 114 small cell lung = tested on: DMS 114 small cell lung
CAKI-1 renal = tested on: CAKI-1 renal
HT29 colon = tested on: HT29 colon
SR leukemia = tested on: SR leukemia
DMS 273 small cell lung = tested on: DMS 273 small cell lung

CCN(CC)CC(=N)N(CC)c1ccccc1
TGI (OVCAR-8 ovarian): > 100 µM | TGI (SK-OV-3 ovarian): > 100 µM | TGI (K-562 leukemia): > 100 µM | TGI (LXFL 529 NSCLC): > 100 µM | TGI (SNB-19 CNS): > 100 µM | TGI (SF-295 CNS): > 100 µM | TGI (HL-60(TB) leukemia): > 100 µM | TGI (M14 melanoma): > 100 µM | TGI (SK-MEL-5 melanoma): > 100 µM | TGI (A498 renal): > 100 µM | TGI (NCI-H226 lung): > 100 µM | TGI (COLO 205 colon): > 100 µM | TGI (HOP-92 NSCLC): > 100 µM | TGI (OVCAR-3 ovarian): > 100 µM | TGI (SNB-75 CNS): > 100 µM | TGI (CCRF-CEM leukemia): > 100 µM | TGI (LOX IMVI melanoma): > 100 µM | TGI (NCI-H460 lung): > 100 µM | TGI (SN12C renal): > 100 µM | TGI (M19-MEL melanoma): > 100 µM | TGI (SF-268 CNS): > 100 µM | TGI (DLD-1 colon): > 100 µM | TGI (UO-31 renal): > 100 µM | TGI (U251 CNS): > 100 µM | TGI (EKVX NSCLC): > 100 µM | TGI (MALME-3M melanoma): > 100 µM | TGI (SF-539 CNS): > 100 µM | TGI (OVCAR-4 ovarian): > 100 µM | TGI (OVCAR-5 ovarian): > 100 µM | TGI (RXF 393 renal): > 100 µM | TGI (A549 NSCLC): > 100 µM | TGI (UACC-257 melanoma): > 100 µM | TGI (NCI-H522 lung): > 100 µM | TGI (XF 498 CNS): > 100 µM | TGI (SNB-78 CNS): > 100 µM | TGI (KM20L2 colon): > 100 µM | TGI (HCT-116 colon): > 100 µM | TGI (SK-MEL-2 melanoma): > 100 µM | TGI (ACHN renal): > 100 µM | TGI (NCI-H23 lung): > 100 µM | TGI (HCC-2998 colon): > 100 µM | TGI (SK-MEL-28 melanoma): > 100 µM | TGI (MOLT-4 leukemia): > 100 µM | TGI (TK-10 renal): > 100 µM | TGI (HOP-62 NSCLC): > 100 µM | TGI (IGROV1 ovarian): > 100 µM | TGI (KM12 colon): > 100 µM | TGI (UACC-62 melanoma): > 100 µM | TGI (SW-620 colon): > 100 µM | TGI (786-0 renal): > 100 µM | TGI (RPMI-8226 leukemia): > 100 µM | TGI (HCT-15 colon): > 100 µM | TGI (HOP-18 NSCLC): > 100 µM | TGI (DMS 114 small cell lung): > 100 µM | TGI (CAKI-1 renal): > 100 µM

COC(=O)c1nn(C(=N)c2ccc(Cl)cc2)c2c1CCC2
TGI (OVCAR-8 ovarian): > 100 µM | TGI (SK-OV-3 ovarian): > 100 µM | TGI (K-562 leukemia): > 100 µM | TGI (LXFL 529 NSCLC): > 100 µM | TGI (SNB-19 CNS): > 100 µM | TGI (SF-295 CNS): > 100 µM | TGI (HL-60(TB) leukemia): > 100 µM | TGI (M14 melanoma): > 100 µM | TGI (SK-MEL-5 melanoma): > 100 µM | TGI (HT29 colon): > 100 µM | TGI (A498 renal): > 100 µM | TGI (NCI-H226 lung): > 100 µM | TGI (COLO 205 colon): > 100 µM | TGI (HOP-92 NSCLC): > 100 µM | TGI (SNB-75 CNS): > 100 µM | TGI (CCRF-CEM leukemia): > 100 µM | TGI (LOX IMVI melanoma): > 100 µM | TGI (NCI-H460 lung): > 100 µM | TGI (SN12C renal): > 100 µM | TGI (M19-MEL melanoma): > 100 µM | TGI (SF-268 CNS): > 100 µM | TGI (DLD-1 colon): > 100 µM | TGI (UO-31 renal): > 100 µM | TGI (U251 CNS): > 100 µM | TGI (SR leukemia): 92.3 µM | TGI (MALME-3M melanoma): > 100 µM | TGI (SF-539 CNS): > 100 µM | TGI (OVCAR-4 ovarian): > 100 µM | TGI (OVCAR-5 ovarian): > 100 µM | TGI (RXF 393 renal): > 100 µM | TGI (DMS 273 small cell lung): > 100 µM | TGI (A549 NSCLC): > 100 µM | TGI (UACC-257 melanoma): > 100 µM | TGI (NCI-H522 lung): > 100 µM | TGI (XF 498 CNS): > 100 µM | TGI (SNB-78 CNS): > 100 µM | TGI (KM20L2 colon): > 100 µM | TGI (HCT-116 colon): > 100 µM | TGI (SK-MEL-2 melanoma): > 100 µM | TGI (ACHN renal): > 100 µM | TGI (NCI-H23 lung): > 100 µM | TGI (HCC-2998 colon): > 100 µM | TGI (SK-MEL-28 melanoma): > 100 µM | TGI (MOLT-4 leukemia): > 100 µM | TGI (TK-10 renal): > 100 µM | TGI (HOP-62 NSCLC): > 100 µM | TGI (IGROV1 ovarian): > 100 µM | TGI (KM12 colon): > 100 µM | TGI (UACC-62 melanoma): > 100 µM | TGI (SW-620 colon): > 100 µM | TGI (786-0 renal): > 100 µM | TGI (RPMI-8226 leukemia): > 100 µM | TGI (HCT-15 colon): > 100 µM | TGI (DMS 114 small cell lung): > 100 µM | TGI (CAKI-1 renal): > 100 µM
